The text below walks through data of the supplement of paper PMC10307832.

Common to all, as to assay: relative viability (nuclei count vs DMSO), 5 days (fraction); higher = more cells survive
Compound in the test “QS11 + Bortezomib”: C1CC2=C(C1)C=C(C=C2)OC3=NC(=C4C(=N3)N(C=N4)CC5=CC=C(C=C5)C6=CC=CC=C6)N[C@@H](CC7=CC=CC=C7)CO [QS11] + CC(C)C[C@H](NC(=O)[C@H](Cc1ccccc1)NC(=O)c1cnccn1)B(O)O [Bortezomib] (partner 0.002 µM)
The method, boiled down: (§1)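 The day after seeding in 1536-well plates, lung cancer cell lines were treated by pin tool with a single drug, or with a fixed anchor-drug dose together with five library-drug doses (not always all listed) in √10 steps. After 5 days, a combined fix-and-stain solution (final 0.05% Triton X-100, 1% formaldehyde, 1 ug/ml Hoechst) was added. Nuclei counted on 4× images gave relative viability as treated counts over vehicle counts, reported as the median of duplicate plates.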

Compound in the test “AZ628 + Pemetrexed”: CC1=C(C=C(C=C1)NC(=O)C2=CC(=CC=C2)C(C)(C)C#N)NC3=CC4=C(C=C3)N=CN(C4=O)C [AZ628] + Nc1nc2[nH]cc(CCc3ccc(C(=O)N[C@@H](CCC(=O)O)C(=O)O)cc3)c2c(=O)[nH]1 [Pemetrexed] (partner 0.2 µM)
The method, boiled down: as §1

Compound in the test “Darinaparsin + OSI-027”: C[As](C)SC[C@H](NC(=O)CC[C@H](N)C(=O)O)C(=O)NCC(=O)O [Darinaparsin] + COc1cccc2cc(-c3nc([C@H]4CC[C@H](C(=O)O)CC4)n4ncnc(N)c34)[nH]c12 [OSI-027] (partner 0.5 µM)
The method, boiled down:
as §1

Compound in the test “QS11 + Linsitinib”: C1CC2=C(C1)C=C(C=C2)OC3=NC(=C4C(=N3)N(C=N4)CC5=CC=C(C=C5)C6=CC=CC=C6)N[C@@H](CC7=CC=CC=C7)CO [QS11] + C[C@]1(O)C[C@@H](c2nc(-c3ccc4ccc(-c5ccccc5)nc4c3)c3c(N)nccn32)C1 [Linsitinib] (partner 1 µM)
The method, boiled down:
as §1

For H3255, the relative viability with QS11 + Bortezomib (first compound 0.08 µM) is 0.813; in the test with QS11 + Bortezomib (first compound 0.253 µM), 0.782; with QS11 + Bortezomib (first compound 2.53 µM), 0.761; in the test with QS11 + Bortezomib (first compound 8 µM), 0.746; in the test with AZ628 + Pemetrexed (first compound 0.08 µM) it was 0.563; in the test with AZ628 + Pemetrexed (first compound 0.253 µM) it was 0.486. Besides, the relative viability with AZ628 + Pemetrexed (first compound 0.8 µM) amounted to 0.597; with AZ628 + Pemetrexed (first compound 2.53 µM), 0.537; in the test with AZ628 + Pemetrexed (first compound 8 µM), 0.504; with Darinaparsin + OSI-027 (first compound 0.08 µM) it was 0.607; with Darinaparsin + OSI-027 (first compound 0.8 µM), 0.543; in the test with Darinaparsin + OSI-027 (first compound 2.53 µM), 0.618. For the same cell line, the relative viability with Darinaparsin + OSI-027 (first compound 8 µM) amounted to 0.547; with QS11 + Linsitinib (first compound 0.08 µM), 0.954; with QS11 + Linsitinib (first compound 0.253 µM), 0.97; in the test with QS11 + Linsitinib (first compound 2.53 µM), 0.973; in the test with QS11 + Linsitinib (first compound 8 µM), 1.03.

For LOU-NH91, the relative viability with QS11 + Bortezomib (first compound 0.08 µM) amounted to 0.494; in the test with QS11 + Bortezomib (first compound 0.253 µM), 0.491; with QS11 + Bortezomib (first compound 0.8 µM) it was 0.417; with QS11 + Bortezomib (first compound 2.53 µM) it was 0.488; in the test with QS11 + Bortezomib (first compound 8 µM), 0.437; in the test with AZ628 + Pemetrexed (first compound 0.08 µM), 0.345. Further, the relative viability with AZ628 + Pemetrexed (first compound 0.253 µM) was 0.384; with AZ628 + Pemetrexed (first compound 0.8 µM), 0.332; in the test with AZ628 + Pemetrexed (first compound 2.53 µM), 0.36; in the test with AZ628 + Pemetrexed (first compound 8 µM), 0.339; with Darinaparsin + OSI-027 (first compound 0.08 µM), 0.74; with Darinaparsin + OSI-027 (first compound 0.8 µM) it was 0.689. The relative viability in the test with Darinaparsin + OSI-027 (first compound 2.53 µM) is 0.711; with Darinaparsin + OSI-027 (first compound 8 µM) it was 0.79; in the test with QS11 + Linsitinib (first compound 0.08 µM), 0.901; with QS11 + Linsitinib (first compound 0.253 µM), 0.862; with QS11 + Linsitinib (first compound 2.53 µM), 0.891; in the test with QS11 + Linsitinib (first compound 8 µM), 0.876.

ABC-1: the relative viability with QS11 + Bortezomib (first compound 0.08 µM) was found to be 0.309; with QS11 + Bortezomib (first compound 0.253 µM), 0.399; with QS11 + Bortezomib (first compound 0.8 µM), 0.319; with QS11 + Bortezomib (first compound 2.53 µM) it was 0.324; with QS11 + Bortezomib (first compound 8 µM), 0.278; in the test with Darinaparsin + OSI-027 (first compound 0.08 µM) it was 0.489. Besides, the relative viability was 0.424 with Darinaparsin + OSI-027 (first compound 0.8 µM); 0.453 with Darinaparsin + OSI-027 (first compound 2.53 µM); 0.444 in the test with Darinaparsin + OSI-027 (first compound 8 µM); 0.955 in the test with QS11 + Linsitinib (first compound 0.08 µM); 0.646 in the test with QS11 + Linsitinib (first compound 0.253 µM); 0.88 in the test with QS11 + Linsitinib (first compound 0.8 µM). Moreover, the figures for the relative viability in the test with QS11 + Linsitinib (first compound 2.53 µM) and with QS11 + Linsitinib (first compound 8 µM) were 0.801 and 0.929, respectively.

With LK-2, the relative viability came out at 0.273 with AZ628 + Pemetrexed (first compound 0.08 µM); 0.221 with AZ628 + Pemetrexed (first compound 0.253 µM); 0.263 with AZ628 + Pemetrexed (first compound 0.8 µM); 0.343 with AZ628 + Pemetrexed (first compound 2.53 µM); 0.15 in the test with AZ628 + Pemetrexed (first compound 8 µM); 0.188 with Darinaparsin + OSI-027 (first compound 0.08 µM). For the same cell line, the relative viability with Darinaparsin + OSI-027 (first compound 0.8 µM) was determined as 0.19; with Darinaparsin + OSI-027 (first compound 2.53 µM), 0.181; in the test with Darinaparsin + OSI-027 (first compound 8 µM), 0.199; in the test with QS11 + Linsitinib (first compound 0.08 µM), 0.341; in the test with QS11 + Linsitinib (first compound 0.253 µM) it was 0.619; in the test with QS11 + Linsitinib (first compound 0.8 µM) it was 0.668. Moreover, the relative viability in the test with QS11 + Linsitinib (first compound 2.53 µM) was 0.31; with QS11 + Linsitinib (first compound 8 µM), 0.81.

On to NCI-H358, for which the relative viability with AZ628 + Pemetrexed (first compound 0.08 µM) came out at 0.172; with AZ628 + Pemetrexed (first compound 0.253 µM), 0.159; in the test with AZ628 + Pemetrexed (first compound 0.8 µM) it was 0.152; in the test with AZ628 + Pemetrexed (first compound 2.53 µM), 0.142; in the test with AZ628 + Pemetrexed (first compound 8 µM), 0.142; with Darinaparsin + OSI-027 (first compound 0.08 µM), 0.988. The relative viability was found to be 0.76 with Darinaparsin + OSI-027 (first compound 0.8 µM); 0.846 with Darinaparsin + OSI-027 (first compound 2.53 µM); 0.793 with Darinaparsin + OSI-027 (first compound 8 µM); 0.731 with QS11 + Linsitinib (first compound 0.08 µM); 0.779 with QS11 + Linsitinib (first compound 0.253 µM); 0.952 with QS11 + Linsitinib (first compound 0.8 µM). In addition, the relative viability in the test with QS11 + Linsitinib (first compound 2.53 µM) turned out to be 1.49; with QS11 + Linsitinib (first compound 8 µM) it was 1.33.

For the cell line IA-LM, the relative viability was 0.978 with QS11 + Bortezomib (first compound 0.08 µM); 0.856 in the test with QS11 + Bortezomib (first compound 0.253 µM); 0.677 with QS11 + Bortezomib (first compound 0.8 µM); 0.665 in the test with QS11 + Bortezomib (first compound 2.53 µM); 0.328 with QS11 + Bortezomib (first compound 8 µM); 0.548 with QS11 + Linsitinib (first compound 0.08 µM). Further, the relative viability was determined as 0.417 in the test with QS11 + Linsitinib (first compound 0.253 µM), 0.29 in the test with QS11 + Linsitinib (first compound 0.8 µM), 0.389 with QS11 + Linsitinib (first compound 2.53 µM) and 0.601 with QS11 + Linsitinib (first compound 8 µM).

In the case of NCI-H1395, the relative viability in the test with AZ628 + Pemetrexed (first compound 0.08 µM) is 0.939; in the test with AZ628 + Pemetrexed (first compound 0.253 µM) it was 0.789; with AZ628 + Pemetrexed (first compound 0.8 µM), 0.806; with AZ628 + Pemetrexed (first compound 2.53 µM) it was 0.637; with AZ628 + Pemetrexed (first compound 8 µM), 0.712; with Darinaparsin + OSI-027 (first compound 0.08 µM), 0.744. For the same cell line, the relative viability with Darinaparsin + OSI-027 (first compound 0.8 µM) turned out to be 0.636; with Darinaparsin + OSI-027 (first compound 2.53 µM) it was 0.586; with Darinaparsin + OSI-027 (first compound 8 µM) it was 0.628; with QS11 + Linsitinib (first compound 0.253 µM), 1.01; with QS11 + Linsitinib (first compound 0.8 µM), 1.17; in the test with QS11 + Linsitinib (first compound 2.53 µM) it was 1.16. The relative viability in the test with QS11 + Linsitinib (first compound 8 µM) is 1.18.

Take NCI-H1944: the relative viability with AZ628 + Pemetrexed (first compound 0.08 µM) turned out to be 0.624; in the test with AZ628 + Pemetrexed (first compound 0.253 µM), 0.576; with AZ628 + Pemetrexed (first compound 0.8 µM) it was 0.511; with AZ628 + Pemetrexed (first compound 2.53 µM), 0.52; with AZ628 + Pemetrexed (first compound 8 µM) it was 0.394; with Darinaparsin + OSI-027 (first compound 0.08 µM), 0.413. Further, the relative viability in the test with Darinaparsin + OSI-027 (first compound 0.8 µM) was determined as 0.372; with Darinaparsin + OSI-027 (first compound 2.53 µM), 0.399; with Darinaparsin + OSI-027 (first compound 8 µM), 0.437; in the test with QS11 + Linsitinib (first compound 0.08 µM), 1.18; in the test with QS11 + Linsitinib (first compound 0.253 µM), 1.38; with QS11 + Linsitinib (first compound 2.53 µM), 1.18. In the test with QS11 + Linsitinib (first compound 8 µM), the relative viability is 1.26.

Consider SK-MES-1, for which the relative viability with AZ628 + Pemetrexed (first compound 0.08 µM) worked out at 0.867; with AZ628 + Pemetrexed (first compound 0.253 µM) it was 0.915; in the test with AZ628 + Pemetrexed (first compound 0.8 µM), 0.844; with AZ628 + Pemetrexed (first compound 2.53 µM), 0.91; with AZ628 + Pemetrexed (first compound 8 µM), 0.59; with Darinaparsin + OSI-027 (first compound 0.08 µM), 0.627. For the same cell line, the relative viability came to 0.743 in the test with Darinaparsin + OSI-027 (first compound 0.8 µM); 0.561 with Darinaparsin + OSI-027 (first compound 2.53 µM); 0.819 with Darinaparsin + OSI-027 (first compound 8 µM); 1.13 in the test with QS11 + Linsitinib (first compound 0.08 µM); 1.08 with QS11 + Linsitinib (first compound 0.253 µM); 0.959 in the test with QS11 + Linsitinib (first compound 0.8 µM). The relative viability with QS11 + Linsitinib (first compound 2.53 µM) was found to be 1.03; with QS11 + Linsitinib (first compound 8 µM), 1.05.

In the case of Calu-6, the relative viability with QS11 + Bortezomib (first compound 0.08 µM) is 1.12; in the test with QS11 + Bortezomib (first compound 0.253 µM) it was 1.07; with QS11 + Bortezomib (first compound 0.8 µM), 0.953; in the test with QS11 + Bortezomib (first compound 2.53 µM), 1.06; in the test with QS11 + Bortezomib (first compound 8 µM), 0.817; with QS11 + Linsitinib (first compound 0.08 µM), 0.971. In addition, the relative viability with QS11 + Linsitinib (first compound 0.253 µM) was found to be 0.936; in the test with QS11 + Linsitinib (first compound 0.8 µM) it was 0.762; in the test with QS11 + Linsitinib (first compound 2.53 µM), 0.921; with QS11 + Linsitinib (first compound 8 µM), 1.21.
